Results as given in the supplement of paper PMC13386468.

Key:
Assay in all cases: IC50 for competition of protein binding to Kinobeads
Conditions in all cases: assay detail: Kinobeads competition in P. falciparum blood-stage lysate
UniProt O77396 = target: UniProt O77396
UniProt Q8IB66 = target: UniProt Q8IB66
UniProt Q8IBM9 = target: UniProt Q8IBM9
UniProt Q8IL22 = target: UniProt Q8IL22
UniProt Q8I635 = target: UniProt Q8I635
UniProt Q8IIV8 = target: UniProt Q8IIV8
UniProt Q8II53 = target: UniProt Q8II53
UniProt Q8IE18 = target: UniProt Q8IE18
UniProt Q8IE99 = target: UniProt Q8IE99
UniProt Q8I2J3 = target: UniProt Q8I2J3
UniProt Q8I1R6 = target: UniProt Q8I1R6
UniProt Q6ZLZ9 = target: UniProt Q6ZLZ9
UniProt Q8IAR3 = target: UniProt Q8IAR3
UniProt Q8IEH3 = target: UniProt Q8IEH3
UniProt Q8IEF5 = target: UniProt Q8IEF5
UniProt Q8ILB6 = target: UniProt Q8ILB6
UniProt Q8I4V7 = target: UniProt Q8I4V7
UniProt Q8IKI9 = target: UniProt Q8IKI9
UniProt Q8I2W4 = target: UniProt Q8I2W4
UniProt Q8ID49 = target: UniProt Q8ID49
UniProt Q8I5H9 = target: UniProt Q8I5H9
UniProt Q8IEL1 = target: UniProt Q8IEL1
UniProt Q8IKU1 = target: UniProt Q8IKU1
UniProt Q8II13 = target: UniProt Q8II13
UniProt Q8IL58 = target: UniProt Q8IL58
UniProt Q8I4Y5 = target: UniProt Q8I4Y5
UniProt Q8IJD4 = target: UniProt Q8IJD4
UniProt Q7KQK0 = target: UniProt Q7KQK0
UniProt O96260 = target: UniProt O96260
UniProt Q8IBZ2 = target: UniProt Q8IBZ2
UniProt Q8IE50 = target: UniProt Q8IE50
UniProt Q8I6S4 = target: UniProt Q8I6S4
UniProt Q8I0U8 = target: UniProt Q8I0U8
UniProt Q8IL56 = target: UniProt Q8IL56
UniProt Q8I431 = target: UniProt Q8I431
UniProt C0H5J2 = target: UniProt C0H5J2
UniProt O96210 = target: UniProt O96210
UniProt Q8I3F1 = target: UniProt Q8I3F1
UniProt Q8I3T1 = target: UniProt Q8I3T1
UniProt C6KTA4 = target: UniProt C6KTA4
UniProt Q8IJ60 = target: UniProt Q8IJ60
UniProt Q8I5R7 = target: UniProt Q8I5R7
UniProt Q8IEK3 = target: UniProt Q8IEK3
UniProt Q8I283 = target: UniProt Q8I283
UniProt Q9TY99 = target: UniProt Q9TY99
UniProt Q8IDD9 = target: UniProt Q8IDD9
UniProt Q8IDK7 = target: UniProt Q8IDK7
UniProt Q8I2U5 = target: UniProt Q8I2U5
UniProt Q8I1Q5 = target: UniProt Q8I1Q5
UniProt Q8IDJ8 = target: UniProt Q8IDJ8
UniProt Q8IJX8 = target: UniProt Q8IJX8
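Note: native unpurified kinases from lysate captured on beads bearing immobilized kinase inhibitors, with bead-bound kinases quantified by mass spectrometry across compound doses.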

UniProt Q8I5R7, sequence (Q8I5R7 whole entry): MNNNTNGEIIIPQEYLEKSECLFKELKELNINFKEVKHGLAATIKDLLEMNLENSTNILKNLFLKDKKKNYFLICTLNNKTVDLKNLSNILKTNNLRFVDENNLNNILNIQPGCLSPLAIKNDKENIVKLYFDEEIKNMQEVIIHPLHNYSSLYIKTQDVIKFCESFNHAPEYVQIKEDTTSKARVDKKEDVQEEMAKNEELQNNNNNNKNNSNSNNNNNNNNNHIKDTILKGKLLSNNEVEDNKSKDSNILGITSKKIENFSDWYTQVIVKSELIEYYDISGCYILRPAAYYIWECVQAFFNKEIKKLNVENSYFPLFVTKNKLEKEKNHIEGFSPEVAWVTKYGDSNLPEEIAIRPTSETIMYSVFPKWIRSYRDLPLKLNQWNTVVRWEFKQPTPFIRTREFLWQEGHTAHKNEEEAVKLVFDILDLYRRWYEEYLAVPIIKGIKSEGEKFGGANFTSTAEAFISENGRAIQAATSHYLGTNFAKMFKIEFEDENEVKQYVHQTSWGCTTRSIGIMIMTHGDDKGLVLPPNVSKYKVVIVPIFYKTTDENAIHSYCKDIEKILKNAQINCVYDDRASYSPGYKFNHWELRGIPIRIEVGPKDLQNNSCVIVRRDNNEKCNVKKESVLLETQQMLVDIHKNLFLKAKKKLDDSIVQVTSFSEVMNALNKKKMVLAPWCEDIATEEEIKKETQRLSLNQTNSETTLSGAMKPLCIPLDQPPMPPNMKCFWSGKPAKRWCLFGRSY
UniProt Q8I0U8, sequence (Q8I0U8 whole entry): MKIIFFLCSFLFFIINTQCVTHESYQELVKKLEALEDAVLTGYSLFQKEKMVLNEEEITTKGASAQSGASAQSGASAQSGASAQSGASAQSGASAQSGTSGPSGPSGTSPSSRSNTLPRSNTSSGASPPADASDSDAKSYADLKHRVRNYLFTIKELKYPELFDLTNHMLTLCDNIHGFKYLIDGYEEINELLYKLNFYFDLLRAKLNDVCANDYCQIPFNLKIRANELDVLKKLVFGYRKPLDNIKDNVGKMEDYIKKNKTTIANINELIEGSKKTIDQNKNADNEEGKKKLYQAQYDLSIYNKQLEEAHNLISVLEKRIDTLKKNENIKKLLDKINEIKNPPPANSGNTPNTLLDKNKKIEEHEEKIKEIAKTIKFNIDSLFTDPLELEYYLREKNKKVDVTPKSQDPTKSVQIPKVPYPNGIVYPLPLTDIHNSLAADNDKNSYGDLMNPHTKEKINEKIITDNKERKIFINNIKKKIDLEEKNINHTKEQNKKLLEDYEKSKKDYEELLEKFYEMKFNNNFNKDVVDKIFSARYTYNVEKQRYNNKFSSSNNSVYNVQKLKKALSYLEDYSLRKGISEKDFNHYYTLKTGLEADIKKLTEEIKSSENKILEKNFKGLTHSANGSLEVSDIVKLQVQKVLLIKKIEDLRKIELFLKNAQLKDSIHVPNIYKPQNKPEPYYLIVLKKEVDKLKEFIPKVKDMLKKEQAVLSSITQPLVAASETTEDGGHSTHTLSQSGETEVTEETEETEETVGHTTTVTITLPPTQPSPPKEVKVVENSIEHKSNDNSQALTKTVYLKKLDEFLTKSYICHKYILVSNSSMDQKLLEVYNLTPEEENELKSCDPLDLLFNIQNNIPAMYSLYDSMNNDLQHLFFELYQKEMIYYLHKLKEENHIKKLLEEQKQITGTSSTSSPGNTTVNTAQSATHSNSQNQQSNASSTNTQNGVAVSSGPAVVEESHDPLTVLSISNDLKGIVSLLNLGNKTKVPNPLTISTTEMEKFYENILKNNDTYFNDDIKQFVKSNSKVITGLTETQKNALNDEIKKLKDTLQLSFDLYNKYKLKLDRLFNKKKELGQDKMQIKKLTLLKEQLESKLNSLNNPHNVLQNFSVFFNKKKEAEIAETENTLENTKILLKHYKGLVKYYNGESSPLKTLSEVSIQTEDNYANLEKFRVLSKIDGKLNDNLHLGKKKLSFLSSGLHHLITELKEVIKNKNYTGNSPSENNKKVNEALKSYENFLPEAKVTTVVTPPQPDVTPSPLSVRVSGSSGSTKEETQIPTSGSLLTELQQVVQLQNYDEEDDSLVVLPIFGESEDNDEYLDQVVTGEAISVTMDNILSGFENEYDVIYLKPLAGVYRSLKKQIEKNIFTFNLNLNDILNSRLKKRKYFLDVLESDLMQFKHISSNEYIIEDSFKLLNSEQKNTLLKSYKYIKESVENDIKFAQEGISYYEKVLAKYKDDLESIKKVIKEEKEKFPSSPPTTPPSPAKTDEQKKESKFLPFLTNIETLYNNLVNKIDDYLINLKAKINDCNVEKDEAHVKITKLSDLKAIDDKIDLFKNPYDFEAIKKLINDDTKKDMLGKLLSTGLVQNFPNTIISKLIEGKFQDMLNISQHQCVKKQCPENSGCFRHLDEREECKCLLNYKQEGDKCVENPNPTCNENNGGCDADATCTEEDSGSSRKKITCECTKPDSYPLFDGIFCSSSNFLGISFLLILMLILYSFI
UniProt Q8IJX8, sequence (Q8IJX8 whole entry): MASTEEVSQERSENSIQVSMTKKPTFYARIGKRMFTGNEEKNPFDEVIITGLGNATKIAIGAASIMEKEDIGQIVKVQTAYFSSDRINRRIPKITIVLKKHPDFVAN
UniProt Q8IJD4, sequence (Q8IJD4 whole entry): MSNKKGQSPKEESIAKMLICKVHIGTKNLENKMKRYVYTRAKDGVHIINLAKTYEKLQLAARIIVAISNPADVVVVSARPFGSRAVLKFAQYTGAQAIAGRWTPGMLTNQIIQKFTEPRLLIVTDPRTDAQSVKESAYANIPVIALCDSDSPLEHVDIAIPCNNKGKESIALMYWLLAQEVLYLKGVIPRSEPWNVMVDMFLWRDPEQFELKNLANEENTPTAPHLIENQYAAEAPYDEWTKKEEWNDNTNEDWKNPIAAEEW
UniProt Q8I2J3, sequence (Q8I2J3 whole entry): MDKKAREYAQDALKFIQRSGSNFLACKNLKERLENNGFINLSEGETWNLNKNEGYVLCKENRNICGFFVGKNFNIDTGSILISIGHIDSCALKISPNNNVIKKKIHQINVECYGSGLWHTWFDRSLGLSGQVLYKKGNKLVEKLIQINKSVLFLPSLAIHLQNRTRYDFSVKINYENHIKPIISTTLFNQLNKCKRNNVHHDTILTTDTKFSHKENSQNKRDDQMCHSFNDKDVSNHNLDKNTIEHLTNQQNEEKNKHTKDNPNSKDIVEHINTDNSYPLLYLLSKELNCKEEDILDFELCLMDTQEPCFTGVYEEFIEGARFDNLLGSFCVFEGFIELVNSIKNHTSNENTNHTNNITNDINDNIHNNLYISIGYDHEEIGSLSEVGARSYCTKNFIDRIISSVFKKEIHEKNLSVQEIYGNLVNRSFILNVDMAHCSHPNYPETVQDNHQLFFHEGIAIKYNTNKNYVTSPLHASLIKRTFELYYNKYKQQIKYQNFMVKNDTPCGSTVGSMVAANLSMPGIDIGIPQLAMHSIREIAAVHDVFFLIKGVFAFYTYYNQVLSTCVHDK

O=c1[nH]c2ccc(Cl)cc2c(NC2CN3CCC2CC3)c1-c1nc2ccccc2[nH]1 (stereo unspecified) [CHIR-124]
IC50 (UniProt O77396): > 20 µM | IC50 (UniProt Q8IB66): > 20 µM | IC50 (UniProt Q8IBM9): > 20 µM | IC50 (UniProt Q8IL22): > 20 µM | IC50 (UniProt Q8I635): > 20 µM | IC50 (UniProt Q8IIV8): > 20 µM | IC50 (UniProt Q8II53): > 20 µM | IC50 (UniProt Q8IE18): > 20 µM | IC50 (UniProt Q8IE99): > 20 µM | IC50 (UniProt Q8I2J3): > 20 µM | IC50 (UniProt Q8I1R6): > 20 µM | IC50 (UniProt Q6ZLZ9): > 20 µM | IC50 (UniProt Q8IAR3): > 20 µM | IC50 (UniProt Q8IEH3): > 20 µM | IC50 (UniProt Q8IEF5): > 20 µM | IC50 (UniProt Q8ILB6): > 20 µM | IC50 (UniProt Q8I4V7): > 20 µM | IC50 (UniProt Q8IKI9): > 20 µM | IC50 (UniProt Q8I2W4): > 20 µM | IC50 (UniProt Q8ID49): > 20 µM | IC50 (UniProt Q8I5H9): 14 µM | IC50 (UniProt Q8IEL1): 2900 nM | IC50 (UniProt Q8IKU1): > 20 µM | IC50 (UniProt Q8II13): > 20 µM | IC50 (UniProt Q8IL58): > 20 µM | IC50 (UniProt Q8I4Y5): > 20 µM | IC50 (UniProt Q8IJD4): > 20 µM | IC50 (UniProt Q7KQK0): 850 nM | IC50 (UniProt O96260): > 20 µM | IC50 (UniProt Q8IBZ2): > 20 µM | IC50 (UniProt Q8IE50): > 20 µM | IC50 (UniProt Q8I6S4): > 20 µM | IC50 (UniProt Q8I0U8): > 20 µM | IC50 (UniProt Q8IL56): > 20 µM | IC50 (UniProt Q8I431): > 20 µM | IC50 (UniProt C0H5J2): > 20 µM | IC50 (UniProt O96210): > 20 µM | IC50 (UniProt Q8I3F1): > 20 µM | IC50 (UniProt Q8I3T1): > 20 µM | IC50 (UniProt C6KTA4): > 20 µM | IC50 (UniProt Q8IJ60): > 20 µM | IC50 (UniProt Q8I5R7): > 20 µM | IC50 (UniProt Q8IEK3): > 20 µM | IC50 (UniProt Q8I283): > 20 µM | IC50 (UniProt Q9TY99): > 20 µM | IC50 (UniProt Q8IDD9): > 20 µM | IC50 (UniProt Q8IDK7): > 20 µM | IC50 (UniProt Q8I2U5): > 20 µM | IC50 (UniProt Q8I1Q5): > 20 µM | IC50 (UniProt Q8IDJ8): > 20 µM | IC50 (UniProt Q8IJX8): > 20 µM
